Results as given in US8066971B2, “Targeting pulmonary epithelium using ADRP” (Los Angeles Biomedical Reseach Institute at Harbor UCLA …, priority 2005, dated 2011).
Entries after “also recorded” stand apart in the source; their conditions may differ. Starred links: 1 amine or outer side, 2 acyl side, 3 side chain; linkers in the order of their positions; H or OH if unused. Positions of bridges follow the written chain, without caps; N, C: chain ends. Non-standard residues stand in square brackets, D forms with d. Residues, ends and D or L forms follow the SMILES beside them. Chains are numbered I, II in the order given. Actinocin(9to1) = Cc1c2oc3c(C)ccc(C(=O)[*:1])c3nc-2c(C(=O)[*:2])c(N)c1=O; NMeV = CN[C@H](C(=O)O)C(C)C; Sar = CNCC(=O)O

Key:
[1] = test system: SP-B mRNA expression by A549 cells; assay: SP-B mRNA expression by A549 cells (RT-PCR); type: cell-based; details: actinomycin D 1 μg/ml, concomitant incubation with LDs
Procedure: (§1) Monolayer cultures of A549 cells were incubated with ADRP-LDs labeled with either tritium or GFP as follows: ^3H-labeled (10,000 dpm/min/20 μg triacylglycerol) ADRP-LDs were isolated from fetal rat lung fibroblasts, as described above. Where indicated, incubations were carried out in the presence of either actinomycin D or cyclohexamide to determine if de novo mRNA or protein synthesis, respectively, was involved in LD processing. Elsewhere, incubations were conducted in the presence of ADRP antibody (rabbit anti-ADRP IgG kindly provided by Dr. Constantine Londos, NIDDK) to determine the specificity of the ADRP effect on LD uptake. At the end of the incubation, the cells were processed for ^3H-satPC (Floros et al. (1987) J Biol Chem. 262(28): 13592-13598), expression of SP-B by RT-PCR and Western Blot (Rehan et al. (2002) Mol Genet Metab. 76(1): 46-56), or for confocal microscopy (see below for method).
(§2) Western blot and RT-PCR for SP-B were performed as described by Rehan et al. (2002) Mol Genet Metab. 76(1): 46-56.

[2] = test system: SP-B protein levels in A549 cells; assay: SP-B protein levels in A549 cells (Western blot); type: cell-based; details: cycloheximide 5 :g/ml, concomitant with ADRP-LDs
Procedure: as §1, §2

Row | SMILES | effect on ADRP induction of SP-B mRNA expression [1] | effect on ADRP-LD-stimulated SP-B protein increase [2]
1 | Cc1c2oc3c(C)ccc(C(=O)N[C@@H]4C(=O)N[C@H](C(C)C)C(=O)N5CCC[C@H]5C(=O)N(C)CC(=O)N(C)[C@@H](C(C)C)C(=O)O[C@@H]4C)c3nc-2c(C(=O)N[C@@H]2C(=O)N[C@H](C(C)C)C(=O)N3CCC[C@H]3C(=O)N(C)CC(=O)N(C)[C@@H](C(C)C)C(=O)O[C@@H]2C)c(N)c1=O [Actinomycin D] (I: T[dV]P[Sar][NMeV] / II: T[dV]P[Sar][NMeV]; ester I:1-I:C, II:1-II:C; linker I:N-II:N via Actinocin(9to1)) | blocked | 
2 | C[C@@H]1C[C@@H]([C@H](O)CC2CC(=O)NC(=O)C2)C(=O)[C@@H](C)C1 [cycloheximide] |  | blocked; also recorded: inhibited
